Source: patent US20080261902A1, “Pharmaceutical composition containing polydatin and its application” (Shenzhen Neptunus Pharmaceutical Co., Ltd., priority 2005, published 2008)
Converted amounts (≈) assume the structure as drawn.

Key:
[1] = Solubility of polydatin in alcohol-propanediol-water mixed solvent (Embodiment 15); type: physicochemical; conditions: for solubility at 8 h: aqueous with cosolvent or surfactant or cyclodextrin, thermodynamic from solid
Text: 1. Materials: Anhydrous alcohol, analytically pure, Guangzhou No. 2 chemical reagent factory; 1,2-propanediol, analytically pure, Guangzhou No. 2 chemical reagent factory; purified water, […] industry city. 2. Method: Precisely measuring alcohol water solution of 45%, 60%, 75%(v/v), precisely adding propanediol at volume proportions of 10:1, 10:2, 10:2.5, 10:3, 10:4, preparing mixed solvents. The mixed solvents obtained contain propanediol of about 10%˜30%(v/v), alcohol of about 32%˜68%(v/v). Precisely measuring 20 ml of each above mixed solvent, adding polydatin of proper amount respectively, treating with ultrasonic for 20 min under 40° C., supersaturating the solution, placing for 8 h under room temperature, filtering with 0.45 μm microporous membrane, wherein the filtrates are saturated solutions of polydatin in different mixed solutions. Adopting HPLC method to determine content of polydatin in the filtrates and calculate solubility of polydatin referring to document 20.

[2] = Solubility of polydatin in alcohol-water solution and normal saline (Embodiment 13); type: physicochemical; conditions: room temperature; for solubility at 8 h: thermodynamic from solid
Experimental: • 1. Materials: Anhydrous alcohol, analytically pure, Guangzhou No.2 chemical reagent factory; purified water, […] industry city; 0.9% sodium chloride injection, batch number C040514-092, Sichuan kelun pharmaceutical co., ltd. • 2. Method: Preparing alcohol water solutions having concentration of 15%, […] 30%, 40%, 50%, 60%, 70%, 80%, 90%, 95%(v/v) with anhydrous alcohol and purified water. Precisely Measuring water, anhydrous alcohol, 0.9% sodium chloride injection (normal saline) and 20 ml alcohol water solution of each above concentration, adding polydatin of proper amount respectively, treating with ultrasonic for 20 min under 40 □, supersaturating the solution, placing for 8 h under room temperature, filtering with 0.45 μm microporous membrane, wherein the filtrates are saturated solutions of polydatin in alcohol water solutions of different concentration. Adopting HPLC method to determine content of polydatin in the filtrates and calculate solubility of polydatin referring to document 20. • 3. Result: […]

[3] = tested on: SD rats, shock related to skin burn; experiment: Treatment action for shock related to skin burn (Embodiment A8); type: in vivo; conditions: 2.4 mg/kg venous injection half hour after burning; control 7.0±2.6 hours
[4] = tested on: SD rats, shock related to blood loss; experiment: Treatment action for shock related to blood loss (Embodiment A7)
[5] = Solubility of polydatin in alcohol-propanediol-water mixed solvent (Embodiment 15); type: physicochemical; conditions: mixed solvent of 60% alcohol-water and propanediol 10:25(v/v) as printed
[6] = tested on: shock caused by bleeding in rats; conditions: versus equal dose of comparators; cited from earlier work
[7] = Polydatin solutions prepared by conventional methods (high pH, heating, tween 80); type: physicochemical
Text: It is widely known by technicians in the field that clinic solutions require pH4.0˜9.0. Obviously, it is hard to prepare polydatin water solution of effective concentration by adjusting pH only. Furthermore, the polydatin has bad stability in solutions of high pH, so the clinic application of the polydatin drug composition preparations of high pH will be further limited. The described document No. 19 adopts heating to dissolve to obtain polydatin drug compositions. According to the experiment, the solutions obtained by heating to dissolve precipitate solute as the temperature reduces, and the polydatin concentrations in the solutions are lower than 0.5 mg/ml after indoor temperature balancing. Obviously, the method is not suitable in preparing officinal medicine preparations. China Patent Application 02134928.2 describes a method of preparing polydatin solutions for injection by adopting adjusting pH and/or adding surfactants (tween 80). […] Furthermore, the prior documents indicate that preparations of administration in vein should be avoided to use as possible because tween surfactants have potential hemolytic and antihypertensive activity. (Zhuangyue etc., applied drug preparation technique, People's medical publishing house 1999:p417)

[8] = tested on: dogs in hemorrhagic shock; experiment: Treatment effect of polydatin drug compositions to dogs in hemorrhagic shock (Embodiment 20); type: in vivo, Beagle dogs; conditions: for survival rate: 168 hours
[9] = tested on: hyperlipoidemia patient; conditions: 2.2 mg/kg/d; cited from earlier work
[10] = tested on: blood platelet; conditions: 6˜100 μmol/L; cited from earlier work

## OCC1OC(Oc2cc(O)cc(/C=C/c3ccc(O)cc3)c2)C(O)C(O)C1O [polydatin, 3,4′,5-trihydroxy-trans stilbene-3-β-D-glucoside]
[1]; alcohol-propanediol-water mixed solvent, 45% alcohol water/propanediol 10/1
  solubility at 8 h: 27.8 mg/mL (≈ 71.2 mM)
[1]; alcohol-propanediol-water mixed solvent, 45% alcohol water/propanediol 10/2
  solubility at 8 h: 34.3 mg/mL (≈ 87.9 mM)
[1]; alcohol-propanediol-water mixed solvent, 45% alcohol water/propanediol 10/2.5
  solubility at 8 h: 39.5 mg/mL (≈ 101 mM)
[1]; alcohol-propanediol-water mixed solvent, 45% alcohol water/propanediol 10/3
  solubility at 8 h: 42.4 mg/mL (≈ 109 mM)
[1]; alcohol-propanediol-water mixed solvent, 45% alcohol water/propanediol 10/4
  solubility at 8 h: 52.2 mg/mL (≈ 134 mM)
[1]; alcohol-propanediol-water mixed solvent, 60% alcohol water/propanediol 10/1
  solubility at 8 h: 55.7 mg/mL (≈ 143 mM)
[1]; alcohol-propanediol-water mixed solvent, 60% alcohol water/propanediol 10/2
  solubility at 8 h: 66.4 mg/mL (≈ 170 mM)
[1]; alcohol-propanediol-water mixed solvent, 60% alcohol water/propanediol 10/2.5
  solubility at 8 h: ~75 mg/mL (≈ 192 mM)
[1]; alcohol-propanediol-water mixed solvent, 60% alcohol water/propanediol 10/3
  solubility at 8 h: 93.3 mg/mL (≈ 239 mM)
[1]; alcohol-propanediol-water mixed solvent, 60% alcohol water/propanediol 10/4
  solubility at 8 h: 95.2 mg/mL (≈ 244 mM)
[1]; alcohol-propanediol-water mixed solvent, 75% alcohol water/propanediol 10/1
  solubility at 8 h: 81.5 mg/mL (≈ 209 mM)
[1]; alcohol-propanediol-water mixed solvent, 75% alcohol water/propanediol 10/2
  solubility at 8 h: 89.8 mg/mL (≈ 230 mM)
[1]; alcohol-propanediol-water mixed solvent, 75% alcohol water/propanediol 10/2.5
  solubility at 8 h: 92.9 mg/mL (≈ 238 mM)
[1]; alcohol-propanediol-water mixed solvent, 75% alcohol water/propanediol 10/3
  solubility at 8 h: 98.4 mg/mL (≈ 252 mM)
[1]; alcohol-propanediol-water mixed solvent, 75% alcohol water/propanediol 10/4
  solubility at 8 h: 116 mg/mL (≈ 297 mM)
[1]; alcohol-water solution without propanediol, 45% alcohol water, no propanediol (10/—)
  solubility at 8 h: 20.2 mg/mL (≈ 51.7 mM)
[1]; alcohol-water solution without propanediol, 60% alcohol water, no propanediol (10/—)
  solubility at 8 h: 42.5 mg/mL (≈ 109 mM)
[1]; alcohol-water solution without propanediol, 75% alcohol water, no propanediol (10/—)
  solubility at 8 h: 75.1 mg/mL (≈ 192 mM)
[1]; mixed solvent of 60% alcohol-water and propanediol 10:2.0~10:4.0
  concentration of polydatin: higher than 60 mg/ml
[2]; alcohol-water solution, aqueous with cosolvent or surfactant or cyclodextrin, alcohol water solution 50%~95% (v/v)
  solubility at 8 h: > 20 mg/mL
[2]; alcohol-water solution, aqueous with cosolvent or surfactant or cyclodextrin, content of alcohol 15% (v/v) in water
  solubility at 8 h: ~1 mg/mL (≈ 2.56 mM)
[2]; alcohol-water solution, aqueous with cosolvent or surfactant or cyclodextrin, content of alcohol 30% (v/v) in water
  solubility at 8 h: ~6 mg/mL (≈ 15.4 mM)
[2]; alcohol-water solution, aqueous with cosolvent or surfactant or cyclodextrin, content of alcohol 40% (v/v) in water
  solubility at 8 h: 9.2 mg/mL (≈ 23.6 mM)
[2]; alcohol-water solution, aqueous with cosolvent or surfactant or cyclodextrin, content of alcohol 50% (v/v) in water
  solubility at 8 h: ~25 mg/mL (≈ 64 mM)
[2]; alcohol-water solution, aqueous with cosolvent or surfactant or cyclodextrin, content of alcohol 60% (v/v) in water
  solubility at 8 h: ~42 mg/mL (≈ 108 mM)
[2]; alcohol-water solution, aqueous with cosolvent or surfactant or cyclodextrin, content of alcohol 70% (v/v) in water
  solubility at 8 h: ~80 mg/mL (≈ 205 mM)
[2]; alcohol-water solution, aqueous with cosolvent or surfactant or cyclodextrin, content of alcohol 80% (v/v) in water
  solubility at 8 h: 76.8 mg/mL (≈ 197 mM)
[2]; alcohol-water solution, aqueous with cosolvent or surfactant or cyclodextrin, content of alcohol 90% (v/v) in water
  solubility at 8 h: ~75 mg/mL (≈ 192 mM)
[2]; alcohol-water solution, aqueous with cosolvent or surfactant or cyclodextrin, content of alcohol 95% (v/v) in water
  solubility at 8 h: 30.7 mg/mL (≈ 78.6 mM)
[2]; anhydrous alcohol, organic solvent or mixture, content of alcohol 100% (anhydrous alcohol)
  solubility at 8 h: ~20 mg/mL (≈ 51.2 mM)
[2]; content of alcohol 70% (v/v) in water
  solubility: 80.9 mg/mL (≈ 207 mM)
[2]; normal saline, saline or isotonic, normal saline (0.9% sodium chloride injection)
  solubility at 8 h: < 0.5 mg/mL
[2]; purified water, water, content of alcohol 0% (purified water)
  solubility at 8 h: < 0.5 mg/mL
[3]
  average survival period: > 13.3 h
[4]; 2.4 mg/kg through femoral vein
  fraction of the treatment group with survival period of 24 hours: 9/10
  fraction of the treatment group with survival period of 48 hours: 8/10
  fraction of the treatment group with survival period of 72 hours: 6/10
[4]; 2.4 mg/kg through femoral vein, 1 hour after shock
  ratio of the survival time of the treatment group and the control group: > 5.5
[4]; after 30 minutes of medication, 2.4 mg/kg, 5.3+0.2 kPa after shock for 1 hour
  arterial pressure: 8.6+0.8 kPa
[4]; after medication, 2.4 mg/kg, diameter reduced to 63.3% by shock
  increase of diameter of micro blood vessel: 20.3%
[5]
  stabilization of the solution in cold preservation: good stabilization
[6]
  treatment effect to shock caused by bleeding: better than that of using an equal dose of Dopamine and Anisodamine hydrobromide
[7]
  sensitivity of polydatin (solution): sensitive to temperature and light
[7]; after indoor temperature balancing
  polydatin concentration in solutions obtained by heating to dissolve: lower than 0.5 mg/ml
[7]; high pH
  stability in solutions of high pH: bad stability
[7]; tween 80 of 0.5%, pH8.5, concentration 4 mg/ml, 4° C.
  cold preservation of polydatin drug composition: can not be cold preserved
[8]; 1.8 mg/kg
  survival rate: 3 number/5
[8]; 3.0 mg/kg
  survival rate: 4 number/5
[8]; 5.0 mg/kg
  survival rate: 4 number/5
[8]; high dose 5.0 mg/kg, compared with blank control and dopamine groups
  average arterial pressure (FIG. 1): can maintain blood pressure of dogs after acute hemorrhage
[9]
  total cholesterol, LDL/HDL cholesterol ratio, and blood platelet aggregation rate: capable of lowering
[10]
  production of the platelet accumulation and B2 thrombus induced by AA and ADP: capable of inhibiting
